From patent US20070154963A1, “Method to determine whether a compound is a cellular GSTpi inhibitor” (priority 2005, published 2007)
Numbered stars: 1 amine (or outer) side, 2 acyl side, 3 side chain; on linkers, the order of the positions; unused ones are H or OH. Square brackets hold non-standard residues; d marks the D form. Peptide text beside a SMILES is read from it. * marks the point of attachment. γGlu = O=C(O)[C@H](CCC(=O)[*:2])N[*:1]; dPhg = N[C@@H](C(=O)O)c1ccccc1; Bn = c1ccc(C*)cc1

Experiments:
[1] = biological target: GST P1-1 (Homo sapiens, UniProt P09211); settings: purified GST P1-1 isoenzyme; read-out: GST P1-1 inhibition IC50; cited from earlier work
[2] = cited from earlier work
[3] = test system: hematopoietic progenitor cells in normal human peripheral blood; settings: all three lineages; cited from earlier work
[4] = MDS clinical trial, interim results; cited from earlier work
[5] = normal animals and animals depleted by cisplatin or fluorouracil; cited from earlier work
[6] = test system: HL-60 promyelocytic leukemia cells; settings: in vitro; cited from earlier work
[7] = biological target: T1, GSTπ (Homo sapiens, UniProt P09211); experiment: cellular GSTπ inhibition: immunoprecipitable GSTπ in HL-60 cell lysate, Western blot; assay type: cell-based
T1 construct: host or cells: HL-60 human promyelocytic leukemia cells
Description: RPMI 1640 medium, NuPAGE® LDS sample buffer (non-reducing lithium dodecyl sulfate buffer, Catalog # NP0007), and NuPAGE® Novex 4-12% Bis-Tris polyacrylamide gels (Catalog # NP0321) were obtained from Invitrogen, Inc., Carlsbad, Calif., U.S.A. Complete Mini protease inhibitor cocktail tablets (Catalog # 04 693 124 001) were obtained from Roche Diagnostics, Inc., Indianapolis, Ind., U.S.A., and were used according to package directions. Lysis buffer (50 mM Tris, pH 8.0, 120 mM NaCl, 0.5% NP-40, and 100 mM NaF) was prepared at Telik, Inc., and the protease inhibitors added shortly before use.
HL-60 cells were seeded at 6×10^5 cells/mL in 20 mL RPMI 1640 medium supplemented with 10% fetal bovine serum, 1 mM L-glutamine and 20 μM gentamycin in each of six T75 flasks, and incubated at 37° C. overnight in a 5% CO2 atmosphere. […] The contents of each flask were then treated as follows: the cells were pelleted by centrifugation and the cell pellet washed twice with phosphate-buffered saline. The cells were then lysed by suspending the pellet in 1 mL lysis buffer, and incubating with gentle agitation at 4° C. for 30 minutes. The cell lysate was cleared by centrifugation at 13,000 rpm for 10 minutes, and the protein content of the lysate was measured using the Bio-Rad protein assay kit. Cell lysate containing 1 mg total proteins was incubated at 4° C. overnight with 4.2 μg of purified mouse monoclonal anti-human GSTπ antibody in 1 mL total volume. Protein A/G agarose beads, 50 μL, were added to the mixture and incubated at 4° C. for 1 hour. The beads were collected by centrifugation, washed three times in lysis buffer, and resuspended in 10 μL 1× non-reducing lithium dodecyl sulfate buffer, and the suspension heated at 95° C. for 5 minutes. The proteins from the six cell lysates, together with a molecular weight marker, were then separated by electrophoresis on a 4-12% Bis-Tris gel and transferred to a nitrocellulose membrane. […] The GSTπ protein bands were visualized and the summed intensities of the GST P1-1 dimer and GST P1 monomer bands quantitated on an Odyssey infrared scanner.

[8] = HL-60 cells, 1-40 μM, two hours

T1 sequence (P09211 2-210 limits assumed): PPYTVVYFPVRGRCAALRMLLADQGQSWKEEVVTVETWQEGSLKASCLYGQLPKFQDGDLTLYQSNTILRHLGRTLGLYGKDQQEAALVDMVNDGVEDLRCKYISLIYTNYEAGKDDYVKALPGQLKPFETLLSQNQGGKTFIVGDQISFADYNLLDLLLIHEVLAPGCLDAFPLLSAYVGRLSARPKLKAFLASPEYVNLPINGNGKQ
Chain of GST P1-1 (P09211 2-210 limits assumed, species assumed): as the sequence (P09211 2-210 limits assumed) above

Question: For `N[C@@H](CCC(=O)N[C@@H](CSCc1ccccc1)C(=O)N[C@@H](C(=O)O)c1ccccc1)C(=O)O` [TLK117, L-γ-glutamyl-S-(phenylmethyl)-L-cysteinyl-D-phenylglycine] (γGlu-Cys(Bn)-[dPhg]-OH), which IC50 [1] is on record?
Answer: Its IC50 is about 0.4 µM.

Question: And the “permeability through cell membrane” value [2]?
Answer: Its value is “poor permeability”.

Question: Which results are given for `CCOC(=O)[C@@H](N)CCC(=O)N[C@@H](CSCc1ccccc1)C(=O)N[C@@H](C(=O)OCC)c1ccccc1` [TLK199]?
Answer: colony formation of hematopoietic progenitor cells [3]: stimulate colony formation; hematologic response [4]: multilineage hematologic improvement; tolerability [4]: well tolerated; white blood cell production [5]: increase white blood cell production; differentiation of HL-60 cells [6]: induce the differentiation; inhibition at 20 µM ([7]; HL-60, 20 μM): ~90%; cellular GSTπ inhibition (amounts of immunoprecipitable GST P1 and GST P1-1 vs DMSO control) [7, 8]: is a cellular GSTπ inhibitor; concentration dependence of cellular GSTπ inhibitory effect [7, 8]: concentration dependent; IC50 [1]: > 200 µM
